# Measurements reported in ChEMBL document CHEMBL1142715, “Discovery of new tetracyclic tetrahydrofuran derivatives as potential broad-spectrum psychotropic agents” (J Med Chem, 2005).
# How the values were obtained:
# D(1A) dopamine receptor [1] = target: D(1A) dopamine receptor (Homo sapiens, UniProt P21728); assay: Inhibition of [3H]SCH-23390 binding to human Dopamine receptor D1
# Rattus norvegicus [2] = assay: In vivo effective dose for reversal of tryptamine-induced backward locomotion in rats; assay type: functional
# Rattus norvegicus [3] = assay: In vivo effective dose for reversal of tryptamine-induced cyanosis in rats; assay type: functional
# [4] = target: 5-hydroxytryptamine receptor 7 (Homo sapiens, UniProt P34969)
# Description: Inhibition of [3H]5-HT binding to human 5-hydroxytryptamine 7 receptor
# D(3) dopamine receptor = D(3) dopamine receptor (Homo sapiens, UniProt P35462)
# Description: Inhibition of [125I]iodosulpiride binding to human Dopamine receptor D3
# Rattus norvegicus [5] = assay: In vivo effective dose to inhibit apomorphine induced agitation in rats upon subcutaneous administration; assay type: functional; conditions: sc
# [6] = target: T1, Alpha-2A adrenergic receptor (Homo sapiens, UniProt P08913)
# T1 sequence (P08913 whole entry): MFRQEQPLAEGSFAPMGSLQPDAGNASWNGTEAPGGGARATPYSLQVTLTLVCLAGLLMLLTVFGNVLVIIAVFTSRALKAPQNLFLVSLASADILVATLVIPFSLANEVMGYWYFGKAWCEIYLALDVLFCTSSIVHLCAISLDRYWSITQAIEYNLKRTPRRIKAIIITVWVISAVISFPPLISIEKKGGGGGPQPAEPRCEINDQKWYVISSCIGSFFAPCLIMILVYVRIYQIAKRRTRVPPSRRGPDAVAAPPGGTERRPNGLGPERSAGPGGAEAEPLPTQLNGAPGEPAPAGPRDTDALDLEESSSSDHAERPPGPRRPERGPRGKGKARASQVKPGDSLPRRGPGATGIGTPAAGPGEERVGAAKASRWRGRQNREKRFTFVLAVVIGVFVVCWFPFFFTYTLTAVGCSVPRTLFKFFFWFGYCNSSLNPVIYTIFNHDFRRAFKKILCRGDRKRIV
# Description: Inhibition of [3H]rauwolscine binding to Alpha-2A adrenergic receptor
# Mus musculus = assay: In vivo effective dose for reversal of RO-4-1284 induced hypothermia in mouse; assay type: functional
# Rattus norvegicus [7] = assay: In vivo effective dose to inhibit tryptamine-induced bilateral convulsions in rats; assay type: functional
# [8] = target: Norepinephrine transporter (Rattus norvegicus, UniProt Q9WTR4); assay: Inhibition of [3H]nisoxetine binding to rat Norepinephrine transporter
# Rattus norvegicus [9] = species on record: Rattus norvegicus; assay: Effective dose for antagonistic activity against m-chlorophenyl-piperazine induced anxiety in rats; assay type: functional
# Histamine H1 receptor = Histamine H1 receptor (Homo sapiens, UniProt P35367)
# Description: Inhibition of [3H]pyrilamine binding to human Histamine H1 receptor
# [10] = target: T2, Adrenergic receptor alpha-1 (Rattus norvegicus, UniProt P15823+P23944+P43140)
# T2 sequence (P15823 whole entry): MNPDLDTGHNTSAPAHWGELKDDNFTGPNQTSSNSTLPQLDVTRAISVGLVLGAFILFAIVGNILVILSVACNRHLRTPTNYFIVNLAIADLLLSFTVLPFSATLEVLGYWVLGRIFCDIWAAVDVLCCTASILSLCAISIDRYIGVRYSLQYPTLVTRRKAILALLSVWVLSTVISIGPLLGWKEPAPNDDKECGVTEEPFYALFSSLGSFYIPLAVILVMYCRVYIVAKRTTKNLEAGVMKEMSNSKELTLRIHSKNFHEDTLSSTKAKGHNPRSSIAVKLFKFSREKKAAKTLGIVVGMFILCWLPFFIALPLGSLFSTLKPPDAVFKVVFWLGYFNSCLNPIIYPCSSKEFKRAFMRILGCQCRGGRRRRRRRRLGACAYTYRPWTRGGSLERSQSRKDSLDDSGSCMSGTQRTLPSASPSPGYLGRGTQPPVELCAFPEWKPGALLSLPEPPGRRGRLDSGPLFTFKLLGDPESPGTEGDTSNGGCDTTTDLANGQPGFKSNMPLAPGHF
# T2 sequence (P23944 whole entry): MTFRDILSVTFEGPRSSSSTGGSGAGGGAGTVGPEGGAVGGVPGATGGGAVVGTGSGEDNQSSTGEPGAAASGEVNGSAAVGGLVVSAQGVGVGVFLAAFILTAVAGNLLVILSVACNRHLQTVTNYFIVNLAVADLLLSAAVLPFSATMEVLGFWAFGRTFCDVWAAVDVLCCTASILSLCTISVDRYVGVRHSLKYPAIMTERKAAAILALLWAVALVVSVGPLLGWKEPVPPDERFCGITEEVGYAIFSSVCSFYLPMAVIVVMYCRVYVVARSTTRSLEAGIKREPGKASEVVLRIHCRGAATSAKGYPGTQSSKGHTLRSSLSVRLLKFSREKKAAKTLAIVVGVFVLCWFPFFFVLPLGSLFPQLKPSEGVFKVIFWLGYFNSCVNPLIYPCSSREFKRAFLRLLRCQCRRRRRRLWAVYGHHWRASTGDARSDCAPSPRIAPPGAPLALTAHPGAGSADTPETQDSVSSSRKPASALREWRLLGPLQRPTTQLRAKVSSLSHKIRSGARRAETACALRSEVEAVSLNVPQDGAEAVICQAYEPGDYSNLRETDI
# T2 sequence (P43140 whole entry): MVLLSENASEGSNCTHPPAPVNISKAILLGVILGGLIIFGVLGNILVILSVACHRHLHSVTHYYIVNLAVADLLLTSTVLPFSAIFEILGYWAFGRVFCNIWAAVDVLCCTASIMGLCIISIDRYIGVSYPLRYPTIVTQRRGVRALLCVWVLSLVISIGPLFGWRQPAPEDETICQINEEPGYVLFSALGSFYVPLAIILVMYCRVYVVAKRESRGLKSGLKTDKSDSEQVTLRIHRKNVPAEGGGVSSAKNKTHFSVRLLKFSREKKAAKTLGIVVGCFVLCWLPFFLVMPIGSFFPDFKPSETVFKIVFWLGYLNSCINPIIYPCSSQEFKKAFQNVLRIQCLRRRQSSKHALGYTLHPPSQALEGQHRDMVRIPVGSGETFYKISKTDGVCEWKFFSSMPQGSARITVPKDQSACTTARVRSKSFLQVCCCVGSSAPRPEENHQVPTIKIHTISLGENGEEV
# Description: Inhibition of [3H]prazosin binding to rat Alpha-1 adrenergic receptor
# [11] = target: T3, Alpha-2C adrenergic receptor (Homo sapiens, UniProt P18825); assay: Inhibition of [3H]rauwolscine binding to Alpha-2C adrenergic receptor
# T3 sequence (P18825 whole entry): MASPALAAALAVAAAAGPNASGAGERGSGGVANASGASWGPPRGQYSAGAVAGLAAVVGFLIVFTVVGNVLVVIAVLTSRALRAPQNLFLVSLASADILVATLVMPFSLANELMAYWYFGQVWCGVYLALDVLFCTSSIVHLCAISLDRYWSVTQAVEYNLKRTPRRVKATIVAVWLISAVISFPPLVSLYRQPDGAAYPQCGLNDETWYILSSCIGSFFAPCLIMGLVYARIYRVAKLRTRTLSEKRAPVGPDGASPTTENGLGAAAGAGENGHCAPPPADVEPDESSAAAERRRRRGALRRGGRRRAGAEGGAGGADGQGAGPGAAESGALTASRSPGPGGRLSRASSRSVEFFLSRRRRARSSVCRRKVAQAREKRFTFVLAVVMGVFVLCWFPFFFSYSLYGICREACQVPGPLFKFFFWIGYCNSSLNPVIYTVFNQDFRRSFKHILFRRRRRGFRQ
# [12] = target: T4, 5-hydroxytryptamine receptor 2C (Homo sapiens, UniProt P28335)
# T4 sequence (P28335 whole entry): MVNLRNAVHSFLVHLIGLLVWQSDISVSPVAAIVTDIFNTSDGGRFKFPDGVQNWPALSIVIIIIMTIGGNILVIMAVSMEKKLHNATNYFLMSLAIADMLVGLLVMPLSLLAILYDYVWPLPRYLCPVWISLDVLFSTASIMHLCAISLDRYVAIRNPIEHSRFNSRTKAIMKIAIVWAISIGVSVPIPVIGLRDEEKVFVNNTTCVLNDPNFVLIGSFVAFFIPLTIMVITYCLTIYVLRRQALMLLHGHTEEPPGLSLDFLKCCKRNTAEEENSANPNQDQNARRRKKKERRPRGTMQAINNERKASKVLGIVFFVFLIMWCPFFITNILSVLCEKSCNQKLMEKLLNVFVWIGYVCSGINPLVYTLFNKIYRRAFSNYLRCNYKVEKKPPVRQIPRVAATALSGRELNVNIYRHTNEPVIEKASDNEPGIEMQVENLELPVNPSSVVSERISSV
# Description: Inhibition of [3H]mesulergine binding to human 5-hydroxytryptamine 2C receptor
# D(1A) dopamine receptor [13] = target: D(1A) dopamine receptor (Rattus norvegicus, UniProt P18901)
# Description: Inhibition of [3H]SCH-23390 binding to rat Dopamine receptor D1
# [14] = target: 5-hydroxytryptamine receptor 2A (Homo sapiens, UniProt P28223)
# 5-hydroxytryptamine receptor 2A, sequence (P28223 whole entry): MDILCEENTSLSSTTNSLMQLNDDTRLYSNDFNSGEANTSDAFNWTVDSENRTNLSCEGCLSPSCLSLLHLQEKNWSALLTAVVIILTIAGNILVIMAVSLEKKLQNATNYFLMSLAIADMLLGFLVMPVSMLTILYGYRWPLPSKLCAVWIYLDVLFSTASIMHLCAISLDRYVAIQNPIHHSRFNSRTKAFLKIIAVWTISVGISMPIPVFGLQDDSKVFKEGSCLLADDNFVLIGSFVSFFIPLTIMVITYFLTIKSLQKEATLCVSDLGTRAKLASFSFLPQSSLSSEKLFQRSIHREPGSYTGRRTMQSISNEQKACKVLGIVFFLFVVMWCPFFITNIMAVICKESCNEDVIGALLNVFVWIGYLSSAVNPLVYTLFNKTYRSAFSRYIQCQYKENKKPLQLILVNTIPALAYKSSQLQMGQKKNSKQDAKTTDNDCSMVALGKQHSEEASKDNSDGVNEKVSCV
# Description: Inhibition of [125I]R91150 binding to human 5-hydroxytryptamine 2A receptor
# D(1A) dopamine receptor (Homo sapiens, UniProt P21728), sequence (P21728 whole entry): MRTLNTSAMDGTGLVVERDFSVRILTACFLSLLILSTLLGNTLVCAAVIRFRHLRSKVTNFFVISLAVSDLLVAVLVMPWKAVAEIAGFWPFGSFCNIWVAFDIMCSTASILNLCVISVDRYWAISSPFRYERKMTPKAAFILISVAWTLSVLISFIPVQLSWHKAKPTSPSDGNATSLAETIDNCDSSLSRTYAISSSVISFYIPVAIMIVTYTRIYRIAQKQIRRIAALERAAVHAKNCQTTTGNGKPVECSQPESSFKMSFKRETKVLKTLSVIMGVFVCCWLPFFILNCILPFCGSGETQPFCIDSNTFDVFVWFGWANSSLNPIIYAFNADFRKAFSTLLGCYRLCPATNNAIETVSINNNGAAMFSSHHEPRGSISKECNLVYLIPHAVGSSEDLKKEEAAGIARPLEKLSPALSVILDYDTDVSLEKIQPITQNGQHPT
# Histamine H1 receptor, sequence (P35367 whole entry): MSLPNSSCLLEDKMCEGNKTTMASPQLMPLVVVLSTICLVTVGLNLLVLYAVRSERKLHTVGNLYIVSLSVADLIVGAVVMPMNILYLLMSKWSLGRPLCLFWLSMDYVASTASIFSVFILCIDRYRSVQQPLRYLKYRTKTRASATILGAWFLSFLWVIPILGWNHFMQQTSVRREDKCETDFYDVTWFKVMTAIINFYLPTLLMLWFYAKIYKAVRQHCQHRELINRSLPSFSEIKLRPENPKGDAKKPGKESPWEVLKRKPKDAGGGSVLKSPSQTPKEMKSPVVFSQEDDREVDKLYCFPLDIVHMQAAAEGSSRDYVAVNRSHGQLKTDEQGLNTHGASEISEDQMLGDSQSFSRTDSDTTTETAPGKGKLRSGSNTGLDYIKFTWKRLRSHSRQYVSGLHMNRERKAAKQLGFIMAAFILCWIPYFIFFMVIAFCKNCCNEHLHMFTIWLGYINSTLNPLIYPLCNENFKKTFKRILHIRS
# Norepinephrine transporter, sequence (Q9WTR4 whole entry): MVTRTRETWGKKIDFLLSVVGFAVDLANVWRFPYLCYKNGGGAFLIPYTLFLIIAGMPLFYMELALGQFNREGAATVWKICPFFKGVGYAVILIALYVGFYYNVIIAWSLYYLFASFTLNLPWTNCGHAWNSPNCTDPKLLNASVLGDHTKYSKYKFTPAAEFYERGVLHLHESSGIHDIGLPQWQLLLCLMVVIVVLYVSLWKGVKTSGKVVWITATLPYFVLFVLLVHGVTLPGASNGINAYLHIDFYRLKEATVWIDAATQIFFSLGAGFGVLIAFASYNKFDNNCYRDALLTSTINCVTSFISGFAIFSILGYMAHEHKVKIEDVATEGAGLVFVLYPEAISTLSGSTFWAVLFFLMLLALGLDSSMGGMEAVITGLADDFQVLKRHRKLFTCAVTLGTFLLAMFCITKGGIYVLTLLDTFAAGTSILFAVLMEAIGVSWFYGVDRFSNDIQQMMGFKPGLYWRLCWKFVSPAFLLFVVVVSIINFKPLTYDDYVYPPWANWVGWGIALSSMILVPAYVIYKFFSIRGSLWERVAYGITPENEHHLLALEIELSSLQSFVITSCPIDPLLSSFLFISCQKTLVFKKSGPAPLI
# 5-hydroxytryptamine receptor 7, sequence (P34969 whole entry): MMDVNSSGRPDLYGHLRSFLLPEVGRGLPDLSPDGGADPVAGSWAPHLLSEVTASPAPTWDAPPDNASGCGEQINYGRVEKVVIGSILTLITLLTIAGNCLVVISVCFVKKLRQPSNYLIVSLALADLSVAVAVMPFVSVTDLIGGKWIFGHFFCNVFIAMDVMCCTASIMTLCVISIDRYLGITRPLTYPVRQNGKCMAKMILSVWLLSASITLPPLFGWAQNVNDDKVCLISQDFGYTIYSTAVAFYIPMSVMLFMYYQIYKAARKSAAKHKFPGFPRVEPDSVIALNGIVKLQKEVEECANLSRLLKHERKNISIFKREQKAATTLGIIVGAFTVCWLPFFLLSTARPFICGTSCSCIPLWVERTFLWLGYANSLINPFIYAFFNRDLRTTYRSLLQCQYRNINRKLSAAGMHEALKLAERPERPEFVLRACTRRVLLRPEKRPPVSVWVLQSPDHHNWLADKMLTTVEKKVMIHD
# D(3) dopamine receptor, sequence (P35462 whole entry): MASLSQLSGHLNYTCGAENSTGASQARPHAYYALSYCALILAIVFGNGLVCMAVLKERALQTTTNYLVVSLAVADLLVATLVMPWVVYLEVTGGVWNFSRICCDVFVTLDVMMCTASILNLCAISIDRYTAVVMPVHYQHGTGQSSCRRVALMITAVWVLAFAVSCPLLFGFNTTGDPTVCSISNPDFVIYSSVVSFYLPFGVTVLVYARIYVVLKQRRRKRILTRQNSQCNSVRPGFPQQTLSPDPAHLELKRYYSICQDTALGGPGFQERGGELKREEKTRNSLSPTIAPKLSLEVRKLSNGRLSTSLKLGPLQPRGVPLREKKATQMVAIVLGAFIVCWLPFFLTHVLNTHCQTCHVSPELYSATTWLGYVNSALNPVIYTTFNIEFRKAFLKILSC
# D(1A) dopamine receptor (Rattus norvegicus, UniProt P18901), sequence (P18901 whole entry): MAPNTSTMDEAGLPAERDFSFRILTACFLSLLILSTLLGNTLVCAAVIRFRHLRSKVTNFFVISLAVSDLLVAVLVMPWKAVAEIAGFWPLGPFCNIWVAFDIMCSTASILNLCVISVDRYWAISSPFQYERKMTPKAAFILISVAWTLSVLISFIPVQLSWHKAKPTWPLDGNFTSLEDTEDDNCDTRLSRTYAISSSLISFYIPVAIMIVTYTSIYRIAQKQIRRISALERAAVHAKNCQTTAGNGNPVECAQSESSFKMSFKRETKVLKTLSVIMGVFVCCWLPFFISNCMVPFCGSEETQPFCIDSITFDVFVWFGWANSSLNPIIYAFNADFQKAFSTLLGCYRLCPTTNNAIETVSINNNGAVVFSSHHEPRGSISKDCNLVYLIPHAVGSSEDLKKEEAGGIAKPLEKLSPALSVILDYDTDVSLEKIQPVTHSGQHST
SMILES,Ki (D(1A) dopamine receptor [1]),Ki [4],Ki (D(3) dopamine receptor),Ki [6],Ki [8],Ki (Histamine H1 receptor),Ki [10],Ki [11],Ki [12],Ki [14],ED50 (Rattus norvegicus [2]),ED50 (Rattus norvegicus [3]),ED50 (Rattus norvegicus [5]),ED50 (Mus musculus),ED50 (Rattus norvegicus [7]),ED50 (Rattus norvegicus [9]),Ki (D(1A) dopamine receptor [13])
CN(C)C[C@@H]1CC2c3ccccc3Oc3ccc(Br)cc3[C@H]2O1 (stereo partly drawn),–,–,–,–,> 5450 nM,–,–,–,17 nM,–,–,–,–,–,–,–,–
Cc1nc2n(c(=O)c1CCN1CCC(c3noc4cc(F)ccc34)CC1)CCCC2 [RISPERIDONE],–,–,–,–,> 5450 nM,–,–,–,–,–,> 10 mg/kg,0.002 mg/kg,0.17 mg/kg,> 10 mg/kg,0.037 mg/kg,> 0.31 mg/kg,–
CN1CCN2c3ncccc3Cc3ccccc3C2C1 (stereo not drawn) [MIRTAZAPINE],–,–,–,–,1640 nM,–,608 nM,18 nM,39 nM,–,0.5 mg/kg,0.8 mg/kg,> 10 mg/kg,> 40 mg/kg,0.32 mg/kg,0.1 mg/kg,4170 nM
CN(C)C[C@H]1CC2c3ccccc3Oc3ccc(Cl)cc3[C@H]2O1 (stereo partly drawn),83 nM,251 nM,251 nM,10 nM,9.4 nM,4.3 nM,35 nM,26 nM,2.4 nM,–,–,–,–,–,–,–,–
CN1CCN(C2=Nc3cc(Cl)ccc3Nc3ccccc32)CC1 [CLOZAPINE],–,–,–,–,–,–,–,–,–,–,–,0.26 mg/kg,8.2 mg/kg,> 80 mg/kg,0.22 mg/kg,> 2.5 mg/kg,–
CN1CCN2c3ccccc3Cc3ccccc3C2C1 (stereo not drawn) [MIANSERIN],–,–,–,–,101 nM,–,–,3.8 nM,–,–,0.55 mg/kg,0.18 mg/kg,> 10 mg/kg,> 40 mg/kg,0.24 mg/kg,1.26 mg/kg,–
CN(C)C[C@H]1C[C@@H]2c3ccccc3Cc3ccccc3[C@H]2O1,–,13 nM,84 nM,126 nM,7.8 nM,0.43 nM,108 nM,69 nM,–,–,1.2 mg/kg,0.02 mg/kg,2 mg/kg,0.2 mg/kg,0.02 mg/kg,0.18 mg/kg,–
Cc1cc2c(s1)Nc1ccccc1N=C2N1CCN(C)CC1 [OLANZAPINE],–,–,–,–,958 nM,–,–,–,–,–,–,0.032 mg/kg,0.26 mg/kg,> 10 mg/kg,0.086 mg/kg,0.44 mg/kg,–
CN(C)C[C@H]1CC2c3ccccc3Oc3ccc(Br)cc3[C@H]2O1 (stereo partly drawn),154 nM,35 nM,95 nM,407 nM,382 nM,42 nM,234 nM,742 nM,8.9 nM,–,–,–,–,–,–,–,–

# Continued, in another order:
Ki (D(1A) dopamine receptor [1]),Ki [4],Ki (D(3) dopamine receptor),Ki [6],Ki [8],Ki (Histamine H1 receptor),Ki [10],Ki [11],Ki [12],Ki [14],SMILES,ED50 (Rattus norvegicus [2]),ED50 (Rattus norvegicus [3]),ED50 (Rattus norvegicus [5]),ED50 (Mus musculus),ED50 (Rattus norvegicus [7]),ED50 (Rattus norvegicus [9]),Ki (D(1A) dopamine receptor [13])
22 nM,6.5 nM,15 nM,156 nM,40 nM,1.4 nM,41 nM,93 nM,1.5 nM,–,CN(C)C[C@H]1C[C@@H]2c3ccccc3Sc3ccc(F)cc3[C@H]2O1,> 2.5 mg/kg,0.05 mg/kg,1.2 mg/kg,2 mg/kg,0.08 mg/kg,> 2.5 mg/kg,–
–,57 nM,–,251 nM,20 nM,33 nM,338 nM,219 nM,7.6 nM,> 5450 nM,CN(C)C[C@@H]1CC2c3ccccc3Oc3ccc(F)cc3[C@H]2O1 (stereo partly drawn),–,–,–,–,–,–,–
–,80 nM,–,269 nM,3.6 nM,7.5 nM,71 nM,200 nM,4.3 nM,> 5450 nM,CN(C)C[C@H]1CC2c3ccccc3Oc3ccc(F)cc3[C@H]2O1 (stereo partly drawn),–,–,–,–,–,–,–
19 nM,34 nM,8.6 nM,72 nM,2.7 nM,1.2 nM,32 nM,78 nM,0.65 nM,–,CN(C)C[C@@H]1CC2c3ccccc3Sc3ccc(F)cc3[C@H]2O1 (stereo partly drawn),–,–,–,–,–,–,–
250 nM,92 nM,45 nM,302 nM,88 nM,14 nM,228 nM,677 nM,3.7 nM,–,CN(C)C[C@@H]1CC2c3ccccc3Oc3ccc(Cl)cc3[C@H]2O1 (stereo partly drawn),–,–,–,–,–,–,–
3 nM,6.2 nM,19 nM,79 nM,2 nM,0.6 nM,7.5 nM,73 nM,0.21 nM,–,CN(C)C[C@H]1CC2c3ccccc3Sc3ccc(F)cc3[C@H]2O1 (stereo in doubt; (-)-8d),0.32 mg/kg,0.013 mg/kg,0.13 mg/kg,0.025 mg/kg,0.0079 mg/kg,> 0.63 mg/kg,–
5.2 nM,6.6 nM,1.1 nM,66 nM,1.6 nM,0.52 nM,8.8 nM,59 nM,< 0.42 nM,–,CN(C)C[C@H]1CC2c3ccccc3Sc3ccc(F)cc3[C@H]2O1 (stereo in doubt; 8d),–,–,–,–,–,–,–
